Data published in the supplement of paper PMC10307832.

Key:
Experiment in all cases: relative viability (nuclei count vs DMSO), 5 days (fraction); higher = more cells survive
Darinaparsin + Foretinib = compound: C[As](C)SC[C@H](NC(=O)CC[C@H](N)C(=O)O)C(=O)NCC(=O)O [Darinaparsin] + COc1cc2c(Oc3ccc(NC(=O)C4(C(=O)Nc5ccc(F)cc5)CC4)cc3F)ccnc2cc1OCCCN1CCOCC1 [Foretinib] (partner 0.25 µM)
Method in brief: (§1)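 Cells from lung cancer lines were seeded into 1536-well plates and, one day later, dosed by pin tool. Treatments were either a single drug or a fixed dose of an anchor drug with five library-drug doses (not always all listed) in √10 steps. After 5 days, nuclei were stained in a one-step fixation (final 0.05% Triton X-100, 1% formaldehyde, 1 ug/ml Hoechst) and counted on 4× images, and relative viability is the treated-to-vehicle nuclei ratio, as the median of duplicate plates.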

QS11 + Foretinib = compound: C1CC2=C(C1)C=C(C=C2)OC3=NC(=C4C(=N3)N(C=N4)CC5=CC=C(C=C5)C6=CC=CC=C6)N[C@@H](CC7=CC=CC=C7)CO [QS11] + COc1cc2c(Oc3ccc(NC(=O)C4(C(=O)Nc5ccc(F)cc5)CC4)cc3F)ccnc2cc1OCCCN1CCOCC1 [Foretinib] (partner 0.25 µM)
Method in brief: as §1

QS11 + Trametinib = compound: C1CC2=C(C1)C=C(C=C2)OC3=NC(=C4C(=N3)N(C=N4)CC5=CC=C(C=C5)C6=CC=CC=C6)N[C@@H](CC7=CC=CC=C7)CO [QS11] + CC(=O)Nc1cccc(-n2c(=O)n(C3CC3)c(=O)c3c(Nc4ccc(I)cc4F)n(C)c(=O)c(C)c32)c1 [Trametinib] (partner 0.02 µM)
Method in brief: as §1

QS11 + Tozasertib = compound: C1CC2=C(C1)C=C(C=C2)OC3=NC(=C4C(=N3)N(C=N4)CC5=CC=C(C=C5)C6=CC=CC=C6)N[C@@H](CC7=CC=CC=C7)CO [QS11] + Cc1cc(Nc2cc(N3CCN(C)CC3)nc(Sc3ccc(NC(=O)C4CC4)cc3)n2)n[nH]1 [Tozasertib] (partner 0.1 µM)
Method in brief: as §1

Cell Line	relative viability (Darinaparsin + Foretinib; first compound 0.08 µM)	relative viability (Darinaparsin + Foretinib; first compound 0.8 µM)	relative viability (Darinaparsin + Foretinib; first compound 2.53 µM)	relative viability (Darinaparsin + Foretinib; first compound 8 µM)	relative viability (QS11 + Foretinib; first compound 0.08 µM)	relative viability (QS11 + Foretinib; first compound 0.253 µM)	relative viability (QS11 + Foretinib; first compound 0.8 µM)	relative viability (QS11 + Foretinib; first compound 2.53 µM)	relative viability (QS11 + Foretinib; first compound 8 µM)	relative viability (QS11 + Trametinib; first compound 0.08 µM)	relative viability (QS11 + Trametinib; first compound 0.253 µM)	relative viability (QS11 + Trametinib; first compound 0.8 µM)	relative viability (QS11 + Trametinib; first compound 2.53 µM)	relative viability (QS11 + Trametinib; first compound 8 µM)	relative viability (QS11 + Tozasertib; first compound 0.08 µM)	relative viability (QS11 + Tozasertib; first compound 0.253 µM)	relative viability (QS11 + Tozasertib; first compound 0.8 µM)	relative viability (QS11 + Tozasertib; first compound 2.53 µM)	relative viability (QS11 + Tozasertib; first compound 8 µM)
NCI-H1755	0.994	0.931	0.868	1.08	0.962	0.841	0.566	0.732	0.683	0.747	0.755	0.54	0.681	0.618	0.617	0.555	0.454	0.515	0.411
LU99A	0.833	0.703	0.806	0.819	0.785	0.796	0.855	0.772	0.748	0.532	0.626	0.517	0.5	0.533	0.269	0.285	0.273	0.296	0.245
HCC-44	–	–	–	–	–	–	–	–	–	1.19	0.908	0.599	1.02	1.02	1	0.981	0.694	0.792	0.458
EBC-1	0.103	0.0925	0.123	0.0888	0.0939	0.0918	0.115	0.11	0.144	–	–	–	–	–	–	–	–	–	–
NCI-H647	1.53	1.31	1.01	1.45	1.17	1.24	0.988	1.09	1.06	0.472	0.428	0.411	0.575	0.544	0.287	0.268	0.291	0.323	0.197
NCI-H1734	1.04	0.801	0.815	0.99	0.842	0.932	0.91	0.772	0.713	0.645	0.626	0.648	0.546	0.565	0.25	0.273	0.28	0.246	0.316
NCI-H1993	0.738	0.761	0.788	0.921	0.737	0.636	0.696	0.787	0.628	0.57	0.532	0.442	0.508	0.522	0.563	0.573	0.605	0.669	0.616
NCI-H23	0.986	0.843	0.891	1.06	1.01	1.1	0.753	0.863	0.961	0.359	0.385	0.283	0.297	0.318	0.277	0.413	0.273	0.253	0.266
NCI-H1623	0.902	0.832	0.871	0.868	0.807	0.829	0.751	0.775	1.01	–	–	–	–	–	0.449	0.546	0.427	0.466	0.434
NCI-H1355	1.09	0.91	0.854	0.768	1.01	0.911	0.775	0.931	1.05	0.447	0.342	0.378	0.378	0.433	0.569	0.564	0.425	0.452	0.413
NCI-H2170	1.01	0.965	0.992	1.19	1.02	0.987	0.77	1.06	1.06	0.93	0.962	0.728	1.01	1.04	0.803	0.662	0.671	0.742	0.721
NCI-H2405	0.994	1.05	0.929	1.07	1	0.986	1	1.08	1.16	0.628	0.585	0.731	0.719	0.79	0.752	0.699	0.725	0.758	0.899
NCI-H2023	0.847	0.78	0.821	0.904	0.721	0.883	0.686	0.999	0.852	0.616	0.57	0.661	0.68	0.597	0.381	0.38	0.276	0.222	0.219
PC-3 [JPC-3]	1.13	1.03	1.1	1.13	0.972	1.07	0.991	1.03	0.982	–	0.712	0.674	0.641	0.568	0.881	0.939	0.857	0.972	0.764
NCI-H1703	0.377	0.328	–	0.307	0.306	0.309	0.333	0.422	0.322	–	–	–	–	–	–	–	–	–	–
NCI-H1563	1.02	0.901	0.826	0.999	0.971	0.876	1.06	1.07	0.916	–	–	–	–	–	–	–	–	–	–
Calu-6	1.04	1.02	0.861	0.938	1.04	0.93	0.897	0.953	0.998	–	–	–	–	–	–	–	–	–	–
NCI-H1299	1.14	1.06	1.09	1.11	1.14	1.11	0.956	1.04	0.948	–	–	–	–	–	–	–	–	–	–
NCI-H522	–	–	–	–	–	–	–	–	–	0.795	0.791	0.675	0.799	0.943	0.494	0.616	0.47	0.627	1.58
NCI-H1648	–	–	–	–	–	–	–	–	–	0.603	0.535	0.423	0.557	0.486	–	0.577	–	0.396	0.642
NCI-H1792	–	–	–	–	–	–	–	–	–	–	0.514	0.39	0.312	0.306	–	–	–	–	–
IA-LM	1.51	1.27	1.35	1.55	1.22	1.15	–	1.12	0.969	–	–	–	–	–	–	–	–	–	–
